Drawing on patent publication US11421001B2, “Template-fixed peptidomimetics” (UNIVERSITAET ZUERICH, priority 2007, dated 2022), this text covers IC50 and half-life for one molecule.

Positions of bridges follow the written chain, without caps; N, C: chain ends. Non-standard residues stand in square brackets, D forms with d. Residues, ends and D or L forms follow the SMILES beside them. Dab = NCC[C@H](N)C(=O)O

Series [1] in a line: FIGS-Assay. In kind it is cell-based. Particulars: 48 hours of co-cultivation; ONPG read out at 405 nm. The procedure:
The assay was performed according to ref. 5, below. Stock dilutions of the peptides (10 μM) were prepared by dissolving in […] at room temperature. Stock solutions were kept at +4° C., light protected. Working dilutions were prepared extemporaneously by serial dilution in Phosphate Buffered Saline (PBS) and added in a final volume of 10 μl directly to the cell cultures. After 48 hours of co-cultivation the cultures were rinsed with PBS and then exposed to glutaraldehyde/formaldehyde (0.2%/2%) in PBS for five minutes. For photometric quantification the fixed cultures were subsequently incubated with ortho-nitro-phenyl-galactopyranoside (ONPG) as a β-galactosidase substrate, which was enzymatically converted into the chromophore ortho-nitrophenol (ONP). The read out is directly obtained by measuring optical density of wells at 405 nm in an iEMS 96well-plate reader.
‘CCR5’ cells were cultured in DMEM medium with […] glucose, 10% fetal bovine serum (FBS), supplemented with 50 U/ml Penicillin and 50 μg/ml Streptomycin (Pen/Strept.). Hut/4-3 cells were maintained in RPMI medium, 10% FBS, supplemented with Pen/Strept. and 10 mM HEPES. HELA cells and CCRF-CEM cells were maintained in RPMI1640 plus 5% FBS, Pen/Strept and 2 mM L-Glutamine. Cos-7 cells were grown in DMEM medium with […] glucose supplemented with 10% FCS, Pen/Strept. and 2 mM L-Glutamine. […]

Series [2] relates to CCRF-CEM cells, gradient of SDF-1. The series can be described thus: Chemotactic assay (cell migration assay). Particulars: 1 nM SDF-1, 4 hours. The class given is cell-based. The procedure: 2.7. Chemotactic Assay (Cell Migration Assay)
The chemotactic response of CCRF-CEM cells to a gradient of stromal cell-derived factor 1α (SDF-1) was measured using disposable assay plates from Neuroprobe (5μ pore size) (Gaithersburg, Md.), according to the manufacturer's directions and references therein [especially ref. 8, below]. Briefly, one […] flask was washed once with Dubecco's phosphate buffered saline (DPBS), and trypsinized for 10 minutes or until cells had lifted. The trypsin was neutralized by the addition of fresh medium containing serum and the cells were pelleted, washed once in DPBS, and resuspended at 1-0.5×10^7 cells/ml in RPMI+0.5% bovine serum albumin (BSA). 45 μl of cell suspension were mixed with 5 μl of 10-fold concentrated PEM peptide diluted in the same assay medium. 35 μl of this mixture were applied to the top of the assay filter. […] The optical absorbance at 595 nm (ABS595) was read using a Tecan Genios plate reader with Magellan software. The number of cells migrated was determined by comparing ABS595 values against a standard curve generated with a known number of cells in the assay plate and were plotted against SDF-1 concentration to obtain a sigmoidal curve and to determine the IC50 values. The values for IC50 were determined using the Trendline function in Microsoft Excel by fitting a logarithmic curve to the averaged datapoints.

A short description of series [3]: Plasma stability, rat plasma. In kind it is in vitro ADME. Particulars: read-out: Stability rat Plasma t1/2.

Turning to `C[C@@H]1NC(=O)[C@H](CO)NC(=O)[C@@H]2CSSC[C@H](NC(=O)[C@H](Cc3ccc(O)cc3)NC(=O)[C@H](CCCNC(=N)N)NC(=O)[C@H](CCN)NC(=O)[C@H]3CCCN3C1=O)C(=O)N[C@@H](Cc1ccc(O)cc1)C(=O)N[C@@H](CCC(N)=O)C(=O)N[C@@H](CCCCN)C(=O)N1CCC[C@@H]1C(=O)N1CCC[C@H]1C(=O)N[C@@H](Cc1ccc(O)cc1)C(=O)N[C@@H](Cc1c[nH]cn1)C(=O)N[C@@H](Cc1ccc(O)cc1)C(=O)N2` [Example 2] (cyclo(YHYCSA[dP][Dab]RYCYQK[dP]P); disulfide 4-11), the IC50 in series [1] came out at 24.7 nM; in series [2] it was 0.5 µM. Besides, the half-life at 10 µM in series [3] is greater than 5 h.
